Assay results from patent US6495133B1, “Gliocladium roseum strains useful for the control of fungal pathogens in plants” (priority 1998, dated 2002).

Experiments:
field pea [1] = assay: Effect of seeding dates on efficacy of seed treatment, field experiments; type: in vivo; as to yield: unit not given here
Rhizoctonia solani [2] = assay: Control of rhizoctonia root rot, growth room experiments; type: in vivo
Rhizoctonia solani [3] = assay: Control of rhizoctonia root rot in field pea, field experiments; type: in vivo
Mycosphaerella pinodes [4] = assay: Control of mycosphaerella seedling blight/root rot in field pea, field experiments; type: in vivo
Mycosphaerella pinodes [5] = assay: Control of seed-borne phase of mycosphaerella blight in field pea, field experiments; type: in vivo; conditions: for increased emergence by / increased yield by: average of two cultivars
field pea [6] = assay: Comparison and compatibility of ACM941 with thiram fungicide, field pea, field experiments; type: in vivo
Sclerotinia sclerotiorum = assay: Control of sclerotinia rot in field pea, growth room experiments
Procedure: (§1) In growth room experiments, seeds were planted in wood planting flats (35.5×47.0×9.0 cm) containing soil mixture of 2:1:1 of soil, perlite and peat moss. The soil mixture was pasteurized and mixed at about 2% v/v with artificially infested vermiculite that was moistened with 0.4% malt extract, autoclaved, inoculated with B. solani, and incubated at 20° C. for 7 days prior to the planting. […] For each treatment 100 seeds were planted in each of the 4-replicate flats. The planted flats were placed in a growth room maintained at 20° C. and with a 14-h photoperiod at 350 mol.m^−2.s^−1 light intensity by fluorescent and incandescent lamps. All experiments were arranged in a completely randomized block design. Emergence was counted 7 days after planting and other parameters were assessed after digging out plants 14 to 16 days after planting. Disease severity was rated on a scale of 0 (no visible lesions on lower stem and roots, seedling is well developed) to 9 (death of plant, the seedling died back quickly after emergence).
The seed treatment procedures, inoculum preparation, inoculation and assessment methods for both growth room and field experiments were the same as described above.

Fusarium solani = assay: Control of fusarium root rot in field pea, growth room experiments; conditions: Field pea (cv. Radley)
Procedure: as §1

Mycosphaerella pinodes [7] = assay: Control of mycosphaerella seedling blight/root rot in field pea, growth room experiments; conditions: Field pea (cv. Radley)
Procedure: as §1

[8] = Optimum seeding, 1995, AC Tamor
[9] = Optimum seeding, 1996, AC Tamor
[10] = Brussel Sprouts (cv. Long Island)
[11] = Cauliflower (cv. Early Snowball)
[12] = Egg Plant (cv. Early Long Purple)
[13] = Healthy-looking seed (HL), 1995, AC Tamor
[14] = Healthy-looking seed (HL), 1995, Radley
[15] = Healthy-looking seed (HL), 1996, AC Tamor
[16] = Healthy-looking seed (HL), 1996, Radley
[17] = Visibly poor seed (VP), 1995, AC Tamor
[18] = Visibly poor seed (VP), 1995, Radley
[19] = Visibly poor seed (VP), 1996, AC Tamor
[20] = Visibly poor seed (VP), 1996, Radley
[21] = Lacombe site, average of two cultivars and two years
[22] = Morden site, average of two cultivars and two years

CN(C)C(=S)SSC(=S)N(C)C [Thiram, thiram]
Emergence (field pea [1]; Early seeding, 1995, AC Tamor): 66.7 a | Yield (field pea [1]; Early seeding, 1995, AC Tamor): 4934 a | Emergence (field pea [1]; Early seeding, 1995, Radley): 72.4 a | Yield (field pea [1]; Early seeding, 1995, Radley): 4566 a | Emergence (field pea [1]; Early seeding, 1996, AC Tamor): 81.6 a | Yield (field pea [1]; Early seeding, 1996, AC Tamor): 2069 b | Emergence (field pea [1]; Early seeding, 1996, Radley): 79.5 a | Yield (field pea [1]; Early seeding, 1996, Radley): 1295 a | Emergence (field pea [1]; Late seeding, 1995, AC Tamor): 35.8 b | Yield (field pea [1]; Late seeding, 1995, AC Tamor): 2454 a | Emergence (field pea [1]; Late seeding, 1995, Radley): 55.0 a | Yield (field pea [1]; Late seeding, 1995, Radley): 3235 a | Emergence (field pea [1]; Late seeding, 1996, AC Tamor): 87.2 a | Yield (field pea [1]; Late seeding, 1996, AC Tamor): 2857 a | Emergence (field pea [1]; Late seeding, 1996, Radley): 84.7 a | Yield (field pea [1]; Late seeding, 1996, Radley): 1706 a | Emergence (field pea [1]; [8]): 62.8 a | Yield (field pea [1]; [8]): 3855 a | Emergence (field pea [1]; Optimum seeding, 1995, Radley): 81.3 a | Yield (field pea [1]; Optimum seeding, 1995, Radley): 2901 a | Emergence (field pea [1]; [9]): 75.5 a | Yield (field pea [1]; [9]): 3152 a | Emergence (field pea [1]; Optimum seeding, 1996, Radley): 84.7 a | Yield (field pea [1]; Optimum seeding, 1996, Radley): 1580 a | Dry wt. (Rhizoctonia solani [2]; Broccoli (cv. Green Sprouting)): 0.01 a g/plant | Emergence (Rhizoctonia solani [2]; Broccoli (cv. Green Sprouting)): 34.0 a % | Fresh wt. (Rhizoctonia solani [2]; Broccoli (cv. Green Sprouting)): 0.1 a g/plant | Root/foot rot severity (Rhizoctonia solani [2]; Broccoli (cv. Green Sprouting)): 5.1 ab 0-9 | Dry wt. (Rhizoctonia solani [2]; [10]): 0.02 a g/plant | Emergence (Rhizoctonia solani [2]; [10]): 19.5 b % | Fresh wt. (Rhizoctonia solani [2]; [10]): 0.2 ab g/plant | Root/foot rot severity (Rhizoctonia solani [2]; [10]): 2.8 a 0-9 | Dry wt. (Rhizoctonia solani [2]; Cabbage (cv. Golden Acre)): 0.01 a g/plant | Emergence (Rhizoctonia solani [2]; Cabbage (cv. Golden Acre)): 59.5 a % | Fresh wt. (Rhizoctonia solani [2]; Cabbage (cv. Golden Acre)): 0.2 a g/plant | Root/foot rot severity (Rhizoctonia solani [2]; Cabbage (cv. Golden Acre)): 2.9 b 0-9 | Dry wt. (Rhizoctonia solani [2]; [11]): 0.01 a g/plant | Emergence (Rhizoctonia solani [2]; [11]): 11.5 b % | Fresh wt. (Rhizoctonia solani [2]; [11]): 0.1 a g/plant | Root/foot rot severity (Rhizoctonia solani [2]; [11]): 4.0 a 0-9 | Dry wt. (Rhizoctonia solani [2]; Cucumber (cv. Imp. Long Green)): 0.06 a g/plant | Emergence (Rhizoctonia solani [2]; Cucumber (cv. Imp. Long Green)): 49.0 b % | Fresh wt. (Rhizoctonia solani [2]; Cucumber (cv. Imp. Long Green)): 0.5 a g/plant | Root/foot rot severity (Rhizoctonia solani [2]; Cucumber (cv. Imp. Long Green)): 2.2 b 0-9 | Dry wt. (Rhizoctonia solani [2]; [12]): 0.01 a g/plant | Emergence (Rhizoctonia solani [2]; [12]): 79.3 a % | Fresh wt. (Rhizoctonia solani [2]; [12]): 0.1 a g/plant | Root/foot rot severity (Rhizoctonia solani [2]; [12]): 1.9 a 0-9 | Dry wt. (Rhizoctonia solani [2]; Field pea (cv. Radley)): 0.27 a g/plant | Emergence (Rhizoctonia solani [2]; Field pea (cv. Radley)): 55.6 a % | Fresh wt. (Rhizoctonia solani [2]; Field pea (cv. Radley)): 2.4 a g/plant | Root/foot rot severity (Rhizoctonia solani [2]; Field pea (cv. Radley)): 3.4 a 0-9 | Dry wt. (Rhizoctonia solani [2]; Garden Pea (cv. Green Arrow)): 0.15 a g/plant | Emergence (Rhizoctonia solani [2]; Garden Pea (cv. Green Arrow)): 89.2 a % | Fresh wt. (Rhizoctonia solani [2]; Garden Pea (cv. Green Arrow)): 1.3 a g/plant | Root/foot rot severity (Rhizoctonia solani [2]; Garden Pea (cv. Green Arrow)): 2.1 b 0-9 | Dry wt. (Rhizoctonia solani [2]; Marigold (cv. Lemondrop)): 0.06 a g/plant | Emergence (Rhizoctonia solani [2]; Marigold (cv. Lemondrop)): 75.2 a % | Fresh wt. (Rhizoctonia solani [2]; Marigold (cv. Lemondrop)): 0.5 a g/plant | Root/foot rot severity (Rhizoctonia solani [2]; Marigold (cv. Lemondrop)): 2.1 a 0-9 | Dry wt. (Rhizoctonia solani [2]; Pepper (cv. California Wonder)): 0.01 a g/plant | Emergence (Rhizoctonia solani [2]; Pepper (cv. California Wonder)): 70.5 b % | Fresh wt. (Rhizoctonia solani [2]; Pepper (cv. California Wonder)): 0.1 a g/plant | Root/foot rot severity (Rhizoctonia solani [2]; Pepper (cv. California Wonder)): 1.3 a 0-9 | Dry wt. (Rhizoctonia solani [2]; Sugar beet (cv. US H2O)): 0.29 a g/plant | Emergence (Rhizoctonia solani [2]; Sugar beet (cv. US H2O)): 57.5 a % | Fresh wt. (Rhizoctonia solani [2]; Sugar beet (cv. US H2O)): 4.4 a g/plant | Root/foot rot severity (Rhizoctonia solani [2]; Sugar beet (cv. US H2O)): 1.6 b 0-9 | Dry wt. (Rhizoctonia solani [2]; Table beet (cv. Ruby Queen)): 0.01 a g/plant | Emergence (Rhizoctonia solani [2]; Table beet (cv. Ruby Queen)): 78.5 a % | Fresh wt. (Rhizoctonia solani [2]; Table beet (cv. Ruby Queen)): 0.1 a g/plant | Root/foot rot severity (Rhizoctonia solani [2]; Table beet (cv. Ruby Queen)): 2.3 b 0-9 | Dry wt. (Rhizoctonia solani [2]; Tomato (cv. Bush Beefsteak)): 0.01 a g/plant | Emergence (Rhizoctonia solani [2]; Tomato (cv. Bush Beefsteak)): 87.8 a % | Fresh wt. (Rhizoctonia solani [2]; Tomato (cv. Bush Beefsteak)): 0.1 a g/plant | Root/foot rot severity (Rhizoctonia solani [2]; Tomato (cv. Bush Beefsteak)): 1.5 a 0-9 | Emergence (Rhizoctonia solani [3]; 1996, AC Tamor): 45.5 a | Yield (Rhizoctonia solani [3]; 1996, AC Tamor): 2497 a | Emergence (Rhizoctonia solani [3]; 1996, Radley): 47.4 a | Yield (Rhizoctonia solani [3]; 1996, Radley): 1589 a | increased emergence by (Rhizoctonia solani [3]; 1996, average of two varieties): 2% | reduced yield by (Rhizoctonia solani [3]; 1996, average of two varieties): 12.5% | effect on emergence (Rhizoctonia solani [3]; 1997): increased emergence significantly | effect on yield (Rhizoctonia solani [3]; 1997): did not increase the yield | Emergence (Rhizoctonia solani [3]; 1997, AC Tamor): 76.0 a | Yield (Rhizoctonia solani [3]; 1997, AC Tamor): 5367 a | Emergence (Rhizoctonia solani [3]; 1997, Radley): 58.6 b | Yield (Rhizoctonia solani [3]; 1997, Radley): 4666 a | Emergence (Mycosphaerella pinodes [4]; 1996, AC Tamor): 76.3 a | Yield (Mycosphaerella pinodes [4]; 1996, AC Tamor): 2140 ab | Emergence (Mycosphaerella pinodes [4]; 1996, Radley): 84.5 a | Yield (Mycosphaerella pinodes [4]; 1996, Radley): 1623 a | Emergence (Mycosphaerella pinodes [4]; 1997, AC Tamor): 80.0 a | Yield (Mycosphaerella pinodes [4]; 1997, AC Tamor): 5645 a | Emergence (Mycosphaerella pinodes [4]; 1997, Radley): 80.2 a | Yield (Mycosphaerella pinodes [4]; 1997, Radley): 3328 a | increased emergence by (Mycosphaerella pinodes [5]; HL seeds, 1995): 108% | increased yield by (Mycosphaerella pinodes [5]; HL seeds, 1995): 106% | decreased yield by (Mycosphaerella pinodes [5]; HL seeds, 1996): 6% | increased emergence by (Mycosphaerella pinodes [5]; HL seeds, 1996): 38% | Emergence (Mycosphaerella pinodes [5]; [13]): 75.9 a | Yield (Mycosphaerella pinodes [5]; [13]): 2892 a | Emergence (Mycosphaerella pinodes [5]; [14]): 91.0 a | Yield (Mycosphaerella pinodes [5]; [14]): 459 a | Emergence (Mycosphaerella pinodes [5]; [15]): 77.9 a | Yield (Mycosphaerella pinodes [5]; [15]): 7381 a | Emergence (Mycosphaerella pinodes [5]; [16]): 89.1 a | Yield (Mycosphaerella pinodes [5]; [16]): 3114 b | increased emergence by (Mycosphaerella pinodes [5]; VP seeds, 1995): 293% | increased yield by (Mycosphaerella pinodes [5]; VP seeds, 1995): 148% | increased emergence by (Mycosphaerella pinodes [5]; VP seeds, 1996): 55% | increased yield by (Mycosphaerella pinodes [5]; VP seeds, 1996): 4% | Emergence (Mycosphaerella pinodes [5]; [17]): 51.0 a | Yield (Mycosphaerella pinodes [5]; [17]): 260 a | Emergence (Mycosphaerella pinodes [5]; [18]): 29.1 a | Yield (Mycosphaerella pinodes [5]; [18]): 643 a | Emergence (Mycosphaerella pinodes [5]; [19]): 49.5 a | Yield (Mycosphaerella pinodes [5]; [19]): 7228 a | Emergence (Mycosphaerella pinodes [5]; [20]): 57.5 a | Yield (Mycosphaerella pinodes [5]; [20]): 4410 a | increased emergence by (field pea [6]; [21]): 4% | reduced yield by (field pea [6]; [21]): 4% | Emergence (field pea [6]; Lacombe, Alberta, 1996, Grande): 87.2 a | Yield (field pea [6]; Lacombe, Alberta, 1996, Grande): 8729 a | Emergence (field pea [6]; Lacombe, Alberta, 1996, Radley): 84.0 a | Yield (field pea [6]; Lacombe, Alberta, 1996, Radley): 5782 a | Emergence (field pea [6]; Lacombe, Alberta, 1997, Grande): 67.0 b | Yield (field pea [6]; Lacombe, Alberta, 1997, Grande): 6507 b | Emergence (field pea [6]; Lacombe, Alberta, 1997, Radley): 87.3 a | Yield (field pea [6]; Lacombe, Alberta, 1997, Radley): 4300 a | increased emergence by (field pea [6]; [22]): 38% | increased yield by (field pea [6]; [22]): 29% | Emergence (field pea [6]; Morden, Manitoba, 1996, Grande): 64.9 a | Yield (field pea [6]; Morden, Manitoba, 1996, Grande): 4541 a | Emergence (field pea [6]; Morden, Manitoba, 1996, Radley): 74.1 a | Yield (field pea [6]; Morden, Manitoba, 1996, Radley): 3286 a | Emergence (field pea [6]; Morden, Manitoba, 1997, Grande): 65.0 a | Yield (field pea [6]; Morden, Manitoba, 1997, Grande): 1878 a | Emergence (field pea [6]; Morden, Manitoba, 1997, Radley): 79.1 a | Yield (field pea [6]; Morden, Manitoba, 1997, Radley): 1064 c | increased yield by (field pea [6]; average of the four station years, two sites): 12% | Dry wt. (Sclerotinia sclerotiorum; Field pea (cv. Radley)): 0.23 a g/plant | Emergence (Sclerotinia sclerotiorum; Field pea (cv. Radley)): 68.1 a % | Fresh wt. (Sclerotinia sclerotiorum; Field pea (cv. Radley)): 2.2 a g/plant | Root rot severity (Sclerotinia sclerotiorum; Field pea (cv. Radley)): 3.2 ab 0-9 | effect on dry weight compared to the nontreated control (Sclerotinia sclerotiorum; greenhouse experiments): Neither ACM941 nor thiram fungicide showed an increase in dry weight | Dry wt. (Fusarium solani): 0.27 a g/plant | Emergence (Fusarium solani): 57.5 a % | Fresh wt. (Fusarium solani): 2.7 a g/plant | Root rot severity (Fusarium solani): 3.3 ab 0-9 | Dry wt. (Mycosphaerella pinodes [7]): 0.32 a g/plant | Emergence (Mycosphaerella pinodes [7]): 67.5 a % | Fresh wt. (Mycosphaerella pinodes [7]): 3.1 a g/plant | Root rot severity (Mycosphaerella pinodes [7]): 2.3 a 0-9
